Laboratory results taken from patent US20260022142A1, “MACROCYCLIC IMMUNOMODULATORS” (Bristol-Myers Squibb Company, priority 2022, published 2026).
Bridge positions count the residues as written; N and C are the ends. Square brackets hold non-standard residues; d marks the D form. Peptide text beside a SMILES is read from it. * marks the point of attachment. Bip = N[C@@H](Cc1ccc(-c2ccccc2)cc1)C(=O)O; Phe(3-Me) = Cc1cccc(C[C@H](N)C(=O)O)c1; Cha = N[C@@H](CC1CCCCC1)C(=O)O; Cit = NC(=O)NCCC[C@H](N)C(=O)O; Carboxymethyl = O=C(O)C*; Orn = NCCC[C@H](N)C(=O)O; Aun = NCCCCCCCCCCC(=O)O; Dab = NCC[C@H](N)C(=O)O; Dap = NC[C@H](N)C(=O)O

Target: T1, PD-1/PD-L1 interaction (PE-labeled human PD-L1-Ig binding to Jurkat cell line over-expressing human PD-1) (Homo sapiens, UniProt Q15116)
T1 construct: expressed in transfected cells; host or cells: Jurkat
T1 sequence (Q15116 25-288): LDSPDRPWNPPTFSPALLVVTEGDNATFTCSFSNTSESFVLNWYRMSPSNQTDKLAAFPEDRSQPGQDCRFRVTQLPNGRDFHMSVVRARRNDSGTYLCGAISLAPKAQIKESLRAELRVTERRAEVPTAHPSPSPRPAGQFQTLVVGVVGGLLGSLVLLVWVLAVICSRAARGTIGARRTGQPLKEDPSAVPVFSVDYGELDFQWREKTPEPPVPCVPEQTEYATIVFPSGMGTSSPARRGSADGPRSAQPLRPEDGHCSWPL
Assay: Jurkat-PD-1 Cell Binding High-Content Screening Assay (CBA)
Type: cell-based
Details: Jurkat cell line over-expressing human PD-1; PE-labeled PD-L1-Ig 20 nM final; read-out: Jurkat hPD1-PDL1 IC50
Method in brief: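 Jurkat cells over-expressing human PD-1 (8×10^3 per well, DMEM/10% FCS) preincubated with compound 2 h at 37° C, then PE-labeled human PD-L1-Ig (20 nM final) added for 1 h. Cells fixed with paraformaldehyde, Hoechst-stained, and bound fluorescence quantified by high-content imaging.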

SMILES | IC50 [µM]
Cc1cccc(C[C@@H]2NC(=O)[C@H](CC(=O)O)NC(=O)[C@H](Cc3ccc(OCC(=O)O)cc3)NC(=O)[C@H](CN)NC(=O)CSC[C@@H](C(=O)N[C@@H](C)C(=O)N[C@@H](CCN)C(=O)NCC(=O)NCCCCCCCCCCC(=O)O)NC(=O)[C@H]([C@@H](C)O)NC(=O)[C@H](C(C)C)NC(=O)[C@H](CC3CCCCC3)NC(=O)[C@H](CCN)NC(=O)[C@@H](CC(C)C)NC(=O)[C@H](CCCN)NC(=O)[C@H](CCCNC(N)=O)NC(=O)[C@H](Cc3ccc(-c4ccccc4)cc3)NC(=O)[C@H](C(C)C)NC2=O)c1 [Compound 1051] ({CH2CO}-[Dap]Y(Carboxymethyl)D[Phe(3-Me)]V[Bip][Cit][Orn][dL][Dab][Cha]VTCA[Dab]G[Aun]-OH; thioether N-14) | 0.0123
Cc1cccc(C[C@@H]2NC(=O)[C@H](CC(=O)O)NC(=O)[C@H](Cc3ccc(OCC(=O)O)cc3)NC(=O)[C@H](CN)NC(=O)CSC[C@@H](C(=O)N[C@@H](C)C(=O)N[C@@H](CN)C(=O)NCC(=O)NCCCCCCCCCCC(=O)O)NC(=O)[C@H]([C@@H](C)O)NC(=O)[C@H](C(C)C)NC(=O)[C@H](CC3CCCCC3)NC(=O)[C@H](CCN)NC(=O)[C@@H](CC(C)C)NC(=O)[C@H](CCCN)NC(=O)[C@H](CCCNC(N)=O)NC(=O)[C@H](Cc3ccc(-c4ccccc4)cc3)NC(=O)[C@H](C(C)C)NC2=O)c1 [Compound 1053] ({CH2CO}-[Dap]Y(Carboxymethyl)D[Phe(3-Me)]V[Bip][Cit][Orn][dL][Dab][Cha]VTCA[Dap]G[Aun]-OH; thioether N-14) | 0.0089
Cc1cccc(C[C@@H]2NC(=O)[C@H](CC(=O)O)NC(=O)[C@H](Cc3ccc(OCC(=O)O)cc3)NC(=O)[C@H](Cc3ccc(OCC(=O)O)cc3)NC(=O)CSC[C@@H](C(=O)NCC(=O)N[C@@H](CCN)C(=O)NCCCCCCCCCCC(=O)O)NC(=O)[C@H](CO)NC(=O)[C@H](C(C)C)NC(=O)[C@H](CC3CCCCC3)NC(=O)[C@H](CCN)NC(=O)[C@@H](CC(C)C)NC(=O)[C@H](CCCN)NC(=O)[C@H](C(C)C)NC(=O)[C@H](Cc3ccc(-c4ccccc4)cc3)NC(=O)[C@H](CC(C)C)NC2=O)c1 [Compound 1054] ({CH2CO}-Y(Carboxymethyl)Y(Carboxymethyl)D[Phe(3-Me)]L[Bip]V[Orn][dL][Dab][Cha]VSCG[Dab][Aun]-OH; thioether N-14) | 0.0313
Cc1cccc(C[C@@H]2NC(=O)[C@H](CC(=O)O)NC(=O)[C@H](Cc3ccc(OCC(=O)O)cc3)NC(=O)[C@H](CN)NC(=O)CSC[C@@H](C(=O)N[C@@H](C)C(=O)N[C@@H](CN)C(=O)NCCCCCCCCCCC(=O)O)NC(=O)[C@H]([C@@H](C)O)NC(=O)[C@H](C(C)C)NC(=O)[C@H](CC3CCCCC3)NC(=O)[C@H](CCN)NC(=O)[C@@H](CC(C)C)NC(=O)[C@H](CCCN)NC(=O)[C@H](CCCNC(N)=O)NC(=O)[C@H](Cc3ccc(-c4ccccc4)cc3)NC(=O)[C@H](C(C)C)NC2=O)c1 [Compound 1057] ({CH2CO}-[Dap]Y(Carboxymethyl)D[Phe(3-Me)]V[Bip][Cit][Orn][dL][Dab][Cha]VTCA[Dap][Aun]-OH; thioether N-14) | 0.0159
Cc1cccc(C[C@@H]2NC(=O)[C@H](CC(=O)O)NC(=O)[C@H](Cc3ccc(OCC(=O)O)cc3)NC(=O)[C@H](Cc3ccc(OCC(=O)O)cc3)NC(=O)CSC[C@@H](C(=O)N[C@@H](CCCCN)C(=O)NCCCCCCCCCCC(=O)O)NC(=O)[C@H](CO)NC(=O)[C@H](C(C)C)NC(=O)[C@H](CC3CCCCC3)NC(=O)[C@H](CCN)NC(=O)[C@@H](CC(C)C)NC(=O)[C@H](CCCN)NC(=O)[C@H](C(C)C)NC(=O)[C@H](Cc3ccc(-c4ccccc4)cc3)NC(=O)[C@H](CC(C)C)NC2=O)c1 [Compound 1058] ({CH2CO}-Y(Carboxymethyl)Y(Carboxymethyl)D[Phe(3-Me)]L[Bip]V[Orn][dL][Dab][Cha]VSCK[Aun]-OH; thioether N-14) | 0.0572
Cc1cccc(C[C@@H]2NC(=O)[C@H](CC(=O)O)NC(=O)[C@H](Cc3ccc(OCC(=O)O)cc3)NC(=O)[C@H](Cc3ccc(OCC(=O)O)cc3)NC(=O)CSC[C@@H](C(=O)N[C@@H](CCCN)C(=O)NCCCCCCCCCCC(=O)O)NC(=O)[C@H](CO)NC(=O)[C@H](C(C)C)NC(=O)[C@H](CC3CCCCC3)NC(=O)[C@H](CCN)NC(=O)[C@@H](CC(C)C)NC(=O)[C@H](CCCN)NC(=O)[C@H](C(C)C)NC(=O)[C@H](Cc3ccc(-c4ccccc4)cc3)NC(=O)[C@H](CC(C)C)NC2=O)c1 [Compound 1059] ({CH2CO}-Y(Carboxymethyl)Y(Carboxymethyl)D[Phe(3-Me)]L[Bip]V[Orn][dL][Dab][Cha]VSC[Orn][Aun]-OH; thioether N-14) | 0.0486
Cc1cccc(C[C@@H]2NC(=O)[C@H](CC(=O)O)NC(=O)[C@H](Cc3ccc(OCC(=O)O)cc3)NC(=O)[C@H](Cc3ccc(OCC(=O)O)cc3)NC(=O)CSC[C@@H](C(=O)N[C@@H](CCN)C(=O)NCCCCCCCCCCC(=O)O)NC(=O)[C@H](CO)NC(=O)[C@H](C(C)C)NC(=O)[C@H](CC3CCCCC3)NC(=O)[C@H](CCN)NC(=O)[C@@H](CC(C)C)NC(=O)[C@H](CCCN)NC(=O)[C@H](C(C)C)NC(=O)[C@H](Cc3ccc(-c4ccccc4)cc3)NC(=O)[C@H](CC(C)C)NC2=O)c1 [Compound 1060] ({CH2CO}-Y(Carboxymethyl)Y(Carboxymethyl)D[Phe(3-Me)]L[Bip]V[Orn][dL][Dab][Cha]VSC[Dab][Aun]-OH; thioether N-14) | 0.0898
Cc1cccc(C[C@@H]2NC(=O)[C@H](CC(=O)O)NC(=O)[C@H](Cc3ccc(OCC(=O)O)cc3)NC(=O)[C@H](Cc3ccc(OCC(=O)O)cc3)NC(=O)CSC[C@@H](C(=O)N[C@@H](CN)C(=O)NCCCCCCCCCCC(=O)O)NC(=O)[C@H](CO)NC(=O)[C@H](C(C)C)NC(=O)[C@H](CC3CCCCC3)NC(=O)[C@H](CCN)NC(=O)[C@@H](CC(C)C)NC(=O)[C@H](CCCN)NC(=O)[C@H](C(C)C)NC(=O)[C@H](Cc3ccc(-c4ccccc4)cc3)NC(=O)[C@H](CC(C)C)NC2=O)c1 [Compound 1061] ({CH2CO}-Y(Carboxymethyl)Y(Carboxymethyl)D[Phe(3-Me)]L[Bip]V[Orn][dL][Dab][Cha]VSC[Dap][Aun]-OH; thioether N-14) | 0.0562
Cc1cccc(C[C@@H]2NC(=O)[C@H](CC(=O)O)NC(=O)[C@H](Cc3ccc(OCC(=O)O)cc3)NC(=O)[C@H](CN)NC(=O)CSC[C@@H](C(=O)N[C@@H](CCN)C(=O)NCCCCCCCCCCC(=O)O)NC(=O)[C@H]([C@@H](C)O)NC(=O)[C@H](C(C)C)NC(=O)[C@H](CC3CCCCC3)NC(=O)[C@H](CCN)NC(=O)[C@@H](CC(C)C)NC(=O)[C@H](CCCN)NC(=O)[C@H](CCCNC(N)=O)NC(=O)[C@H](Cc3ccc(-c4ccccc4)cc3)NC(=O)[C@H](C(C)C)NC2=O)c1 [Compound 1064] ({CH2CO}-[Dap]Y(Carboxymethyl)D[Phe(3-Me)]V[Bip][Cit][Orn][dL][Dab][Cha]VTC[Dab][Aun]-OH; thioether N-14) | 0.0163
Cc1cccc(C[C@@H]2NC(=O)[C@H](CC(=O)O)NC(=O)[C@H](Cc3ccc(OCC(=O)O)cc3)NC(=O)[C@H](CN)NC(=O)CSC[C@@H](C(=O)N[C@@H](CN)C(=O)NCCCCCCCCCCC(=O)O)NC(=O)[C@H]([C@@H](C)O)NC(=O)[C@H](C(C)C)NC(=O)[C@H](CC3CCCCC3)NC(=O)[C@H](CCN)NC(=O)[C@@H](CC(C)C)NC(=O)[C@H](CCCN)NC(=O)[C@H](CCCNC(N)=O)NC(=O)[C@H](Cc3ccc(-c4ccccc4)cc3)NC(=O)[C@H](C(C)C)NC2=O)c1 [Compound 1065] ({CH2CO}-[Dap]Y(Carboxymethyl)D[Phe(3-Me)]V[Bip][Cit][Orn][dL][Dab][Cha]VTC[Dap][Aun]-OH; thioether N-14) | 0.0135
Cc1cccc(C[C@@H]2NC(=O)[C@H](CC(=O)O)NC(=O)[C@H](Cc3ccc(OCC(=O)O)cc3)NC(=O)[C@H](CN)NC(=O)CSC[C@@H](C(=O)N[C@@H](C)C(=O)N[C@@H](CCCCN)C(=O)NCC(=O)NCCCCCCCCCCC(=O)O)NC(=O)[C@H]([C@@H](C)O)NC(=O)[C@H](C(C)C)NC(=O)[C@H](CC3CCCCC3)NC(=O)[C@H](CCN)NC(=O)[C@@H](CC(C)C)NC(=O)[C@H](CCCN)NC(=O)[C@H](CCCNC(N)=O)NC(=O)[C@H](Cc3ccc(-c4ccccc4)cc3)NC(=O)[C@H](C(C)C)NC2=O)c1 [Compound 1066] ({CH2CO}-[Dap]Y(Carboxymethyl)D[Phe(3-Me)]V[Bip][Cit][Orn][dL][Dab][Cha]VTCAKG[Aun]-OH; thioether N-14) | 0.0139
Cc1cccc(C[C@@H]2NC(=O)[C@H](CC(=O)O)NC(=O)[C@H](Cc3ccc(OCC(=O)O)cc3)NC(=O)[C@H](Cc3ccc(OCC(=O)O)cc3)NC(=O)CSC[C@@H](C(=O)NCC(=O)N[C@@H](CCCN)C(=O)NCC(=O)NCCCCCCCCCCC(=O)O)NC(=O)[C@H](CO)NC(=O)[C@H](C(C)C)NC(=O)[C@H](CC3CCCCC3)NC(=O)[C@H](CCN)NC(=O)[C@@H](CC(C)C)NC(=O)[C@H](CCCN)NC(=O)[C@H](C(C)C)NC(=O)[C@H](Cc3ccc(-c4ccccc4)cc3)NC(=O)[C@H](CC(C)C)NC2=O)c1 [Compound 1067] ({CH2CO}-Y(Carboxymethyl)Y(Carboxymethyl)D[Phe(3-Me)]L[Bip]V[Orn][dL][Dab][Cha]VSCG[Orn]G[Aun]-OH; thioether N-14) | 0.0285
Cc1cccc(C[C@@H]2NC(=O)[C@H](CC(=O)O)NC(=O)[C@H](Cc3ccc(OCC(=O)O)cc3)NC(=O)[C@H](CN)NC(=O)CSC[C@@H](C(=O)N[C@@H](C)C(=O)N[C@@H](CCCN)C(=O)NCC(=O)NCCCCCCCCCCC(=O)O)NC(=O)[C@H]([C@@H](C)O)NC(=O)[C@H](C(C)C)NC(=O)[C@H](CC3CCCCC3)NC(=O)[C@H](CCN)NC(=O)[C@@H](CC(C)C)NC(=O)[C@H](CCCN)NC(=O)[C@H](CCCNC(N)=O)NC(=O)[C@H](Cc3ccc(-c4ccccc4)cc3)NC(=O)[C@H](C(C)C)NC2=O)c1 [Compound 1068] ({CH2CO}-[Dap]Y(Carboxymethyl)D[Phe(3-Me)]V[Bip][Cit][Orn][dL][Dab][Cha]VTCA[Orn]G[Aun]-OH; thioether N-14) | 0.0104
